Laboratory results: PubChem BioAssay AID256 (DTP/NCI, 2004)
“And” between values parts separate entries of the source, which are not always exact repeats. Equal entries are not always repeated. Toxic doses and inconclusive results are not listed.

Test system: CD2F1 mice, L1210 leukemia ip, survival T/C
Test: NCI In Vivo Anticancer Drug Screen. Data for tumor model L1210 Leukemia (intraperitoneal) in CD2F1 (CDF1) mice
Settings: higher = longer survival
In short: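 Ratio T/C, where T is the treated-group value and C the vehicle-dosed control value, from mice implanted with a transplantable tumor.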

[1] = endpoint: mean survival time, dose: 50.0 mg/kg/injection, schedule: Q01DX009 (ip), vehicle: saline with Tween-80
[2] = endpoint: mean survival time, dose: 100.0 mg/kg/injection, schedule: Q01DX009 (ip), vehicle: saline with Tween-80
[3] = endpoint: mean survival time, dose: 200.0 mg/kg/injection, schedule: Q01DX009 (ip), vehicle: saline with Tween-80
[4] = endpoint: mean survival time, dose: 25.0 mg/kg/injection, schedule: Q01DX009 (ip), vehicle: saline with Tween-80
[5] = endpoint: mean survival time, dose: 50.0 mg/kg/injection, schedule: Q01DX009 (ip), vehicle: saline
[6] = endpoint: mean survival time, dose: 100.0 mg/kg/injection, schedule: Q01DX009 (ip), vehicle: saline
[7] = endpoint: mean survival time, dose: 100.0 mg/kg/injection, schedule: Q04DX003 (ip), vehicle: saline with Tween-80
[8] = endpoint: mean survival time, dose: 200.0 mg/kg/injection, schedule: Q04DX003 (ip), vehicle: saline with Tween-80
[9] = endpoint: mean survival time, dose: 400.0 mg/kg/injection, schedule: Q04DX003 (ip), vehicle: saline with Tween-80
[10] = endpoint: mean survival time, dose: 75.0 mg/kg/injection, schedule: Q01DX001 (ip), vehicle: saline
[11] = endpoint: mean survival time, dose: 150.0 mg/kg/injection, schedule: Q01DX001 (ip), vehicle: saline
[12] = endpoint: mean survival time, dose: 100.0 mg/kg/injection, schedule: Q01DX001 (ip), vehicle: saline
[13] = endpoint: mean survival time, dose: 50.0 mg/kg/injection, schedule: Q01DX009 (ip), vehicle: Klucel (hydroxypropylcellulose) (HPC)
[14] = endpoint: mean survival time, dose: 100.0 mg/kg/injection, schedule: Q01DX009 (ip), vehicle: Klucel (hydroxypropylcellulose) (HPC)

With `N#Cc1ccc(OCc2nc(N)nc(N)c2-c2ccc(Cl)c(Cl)c2)cc1` the T/C [1] was 90 % of control, the T/C [2] was 102 % of control and the T/C [3] was 110 % of control.
With `COc1ccc(OC)c(C(=O)C=C(C(F)(F)F)C(F)(F)F)c1` the T/C (endpoint: mean survival time, dose: 100.0 mg/kg/injection, schedule: Q01DX009 (ip), vehicle: other) was 113 % of control.
With `N[C@@H](C[C@H]1CCC(=O)[C@@H]2O[C@H]12)C(=O)O` the T/C (endpoint: mean survival time, dose: 100.0 mg/kg/injection, schedule: Q04DX002 (ip), vehicle: saline) was 117 % of control and 107 % of control, the T/C (endpoint: mean survival time, dose: 400.0 mg/kg/injection, schedule: Q04DX002 (ip), vehicle: saline) was 167 % of control and the T/C (endpoint: median survival time, dose: 50.0 mg/kg/injection, schedule: Q01DX005 (ip), vehicle: saline) was 113 % of control and 110 % of control. For the same molecule, the T/C (endpoint: median survival time, dose: 100.0 mg/kg/injection, schedule: Q01DX005 (ip), vehicle: saline) was 122 % of control and 124 % of control, the T/C (endpoint: median survival time, dose: 144.0 mg/kg/injection, schedule: Q01DX005 (ip), vehicle: saline) was 110 % of control and the T/C (endpoint: median survival time, dose: 172.8 mg/kg/injection, schedule: Q01DX005 (ip), vehicle: saline) was 119 % of control. For the same molecule, the T/C (endpoint: median survival time, dose: 240.0 mg/kg/injection, schedule: Q01DX005 (ip), vehicle: saline) was 114 % of control, the T/C (endpoint: median survival time, dose: 288.0 mg/kg/injection, schedule: Q01DX005 (ip), vehicle: saline) was 121 % of control and the T/C (endpoint: median survival time, dose: 800.0 mg/kg/injection, schedule: Q01DX005 (ip), vehicle: saline) was 155 % of control.
`CC1=CC(=O)C2(C)C(C)=C(C)C12C` (configuration not stated) was tested, and the T/C [4] was 104 % of control, the T/C [1] was 100 % of control and the T/C [2] was 102 % of control.
For `CC1(C)N=C(N)N=C(N)N1c1cccc(CC(=O)Nc2ccc(S(=O)(=O)F)cc2)c1`, the T/C [5] was 120 % of control, the T/C [6] was 117 % of control and the T/C (endpoint: mean survival time, dose: 300.0 mg/kg/injection, schedule: Q01DX009 (ip), vehicle: saline) was 120 % of control.
With `CC1=NN(c2ccccc2)C(=O)CC1` the T/C [7] was 101 % of control, the T/C [8] was 101 % of control and the T/C [9] was 103 % of control.
With `CC(=O)C1=C(C)NC(C)=C(C(C)=O)C1C` the T/C [2] was 100 % of control, the T/C [7] was 93 % of control and the T/C [3] was 95 % of control. The T/C [8] was 97 % of control and the T/C [9] was 92 % of control.
`O=[N+]([O-])c1ccc(C[n+]2ccccc2)cc1` was tested, and the T/C (endpoint: mean survival time, dose: 5.0 mg/kg/injection, schedule: Q01DX009 (ip), vehicle: saline) was 87 % of control, the T/C (endpoint: mean survival time, dose: 5.0 mg/kg/injection, schedule: Q04DX003 (ip), vehicle: saline) was 104 % of control and the T/C (endpoint: mean survival time, dose: 10.0 mg/kg/injection, schedule: Q01DX009 (ip), vehicle: saline) was 90 % of control. For the same molecule, the T/C (endpoint: mean survival time, dose: 10.0 mg/kg/injection, schedule: Q04DX003 (ip), vehicle: saline) was 108 % of control, the T/C (endpoint: mean survival time, dose: 20.0 mg/kg/injection, schedule: Q01DX009 (ip), vehicle: saline) was 95 % of control and the T/C (endpoint: mean survival time, dose: 20.0 mg/kg/injection, schedule: Q04DX003 (ip), vehicle: saline) was 100 % of control.
In the case of `O=C1CCC(c2ccccc2)=NN1c1ccccc1`, the T/C (endpoint: mean survival time, dose: 100.0 mg/kg/injection, schedule: Q04DX003 (ip), vehicle: Klucel (hydroxypropylcellulose) (HPC)) is reported as 98 % of control, the T/C (endpoint: mean survival time, dose: 200.0 mg/kg/injection, schedule: Q04DX003 (ip), vehicle: Klucel (hydroxypropylcellulose) (HPC)) is reported as 96 % of control and the T/C (endpoint: mean survival time, dose: 400.0 mg/kg/injection, schedule: Q04DX003 (ip), vehicle: Klucel (hydroxypropylcellulose) (HPC)) is reported as 96 % of control.
In the case of `NC(N)=N/N=C\c1c2ccccc2cc2ccccc12`, the T/C (endpoint: mean survival time, dose: 0.78 mg/kg/injection, schedule: Q01DX009 (ip), vehicle: water) is reported as 100 % of control, the T/C (endpoint: mean survival time, dose: 1.56 mg/kg/injection, schedule: Q01DX009 (ip), vehicle: other) is reported as 101 % of control and the T/C (endpoint: mean survival time, dose: 1.56 mg/kg/injection, schedule: Q01DX009 (ip), vehicle: water) is reported as 101 % of control. For the same molecule, the T/C (endpoint: mean survival time, dose: 3.13 mg/kg/injection, schedule: Q01DX009 (ip), vehicle: other) was 100 % of control, the T/C (endpoint: mean survival time, dose: 3.13 mg/kg/injection, schedule: Q01DX009 (ip), vehicle: water) was 116 % of control and the T/C (endpoint: mean survival time, dose: 6.25 mg/kg/injection, schedule: Q01DX009 (ip), vehicle: other) was 106 % of control. For the same molecule, the T/C (endpoint: mean survival time, dose: 12.5 mg/kg/injection, schedule: Q01DX009 (ip), vehicle: other) was 106 % of control, the T/C (endpoint: mean survival time, dose: 12.5 mg/kg/injection, schedule: Q01DX009 (ip), vehicle: water) was 105 % of control and the T/C (endpoint: mean survival time, dose: 25.0 mg/kg/injection, schedule: Q01DX009 (ip), vehicle: other) was 111 % of control.
For `CCCC(CCC)NCCO`, the T/C [10] was 98 % of control and the T/C [11] was 96 % of control.
For `CCOC(=O)c1c(C)c2c(n1C)CC/C(=C\O)C2=O`, the T/C (endpoint: mean survival time, dose: 25.0 mg/kg/injection, schedule: Q04DX002 (ip), vehicle: other) was 100 % of control, the T/C (endpoint: mean survival time, dose: 50.0 mg/kg/injection, schedule: Q04DX002 (ip), vehicle: other) was 96 % of control and the T/C (endpoint: mean survival time, dose: 100.0 mg/kg/injection, schedule: Q04DX002 (ip), vehicle: other) was 88 % of control and 96 % of control.
For `CC(CCc1ccc(S(=O)(=O)Cl)cc1)c1ccc(S(=O)(=O)Cl)cc1` (configuration not stated), the T/C [1] was 106 % of control, the T/C [2] was 95 % of control and the T/C [3] was 91 % of control.
With `CN(C)c1nc2c(N)ncnc2n1C1OC(CO)C(O)C1O` (configuration not stated) the T/C (endpoint: mean survival time, dose: 10.0 mg/kg/injection, schedule: Q04DX002 (ip), vehicle: saline with Tween-80) was 103 % of control, the T/C (endpoint: mean survival time, dose: 20.0 mg/kg/injection, schedule: Q04DX002 (ip), vehicle: saline with Tween-80) was 98 % of control and the T/C (endpoint: mean survival time, dose: 40.0 mg/kg/injection, schedule: Q04DX002 (ip), vehicle: saline with Tween-80) was 98 % of control. The T/C (endpoint: mean survival time, dose: 50.0 mg/kg/injection, schedule: Q01DX001 (ip), vehicle: saline) was 100 % of control, the T/C [5] was 123 % of control and the T/C [12] was 106 % of control. The T/C [6] was 100 % of control and the T/C (endpoint: mean survival time, dose: 200.0 mg/kg/injection, schedule: Q01DX001 (ip), vehicle: saline) was 102 % of control.
For `Cc1cccc(NC(=O)c2ccccc2)n1`, the T/C (endpoint: mean survival time, dose: 12.5 mg/kg/injection, schedule: Q01DX009 (ip), vehicle: saline with Tween-80) was 97 % of control, the T/C [4] was 101 % of control and the T/C [1] was 103 % of control.
`COc1ccc2[nH]c(=O)oc(=O)c2c1` was tested, and the T/C (endpoint: mean survival time, dose: 12.5 mg/kg/injection, schedule: Q01DX009 (ip), vehicle: Klucel (hydroxypropylcellulose) (HPC)) was 96 % of control, the T/C (endpoint: mean survival time, dose: 25.0 mg/kg/injection, schedule: Q01DX009 (ip), vehicle: Klucel (hydroxypropylcellulose) (HPC)) was 102 % of control and the T/C [13] was 108 % of control. For the same molecule, the T/C (endpoint: mean survival time, dose: 100.0 mg/kg/injection, schedule: Q01DX001 (ip), vehicle: saline with Tween-80) was 96 % of control, the T/C [14] was 106 % of control and the T/C [2] was 104 % of control. The T/C (endpoint: mean survival time, dose: 200.0 mg/kg/injection, schedule: Q01DX001 (ip), vehicle: saline with Tween-80) was 107 % of control and the T/C (endpoint: mean survival time, dose: 400.0 mg/kg/injection, schedule: Q01DX001 (ip), vehicle: saline with Tween-80) was 105 % of control.
In the case of `C1CC[N-]CC1.CC(=N\O)/C(C)=N/O.CC(=N\O)/C(C)=N/O.C[CH-]C(C)O.[Co+2]`, the T/C (endpoint: mean survival time, dose: 6.25 mg/kg/injection, schedule: Q04DX003 (ip), vehicle: saline) is reported as 97 % of control.
With `CCCC[N+](CCCC)(CCCC)Cc1ccccc1` the T/C (endpoint: mean survival time, dose: 1.5 mg/kg/injection, schedule: Q04DX003 (ip), vehicle: saline) was 100 % of control, the T/C (endpoint: mean survival time, dose: 3.0 mg/kg/injection, schedule: Q04DX003 (ip), vehicle: saline) was 97 % of control and the T/C (endpoint: mean survival time, dose: 6.0 mg/kg/injection, schedule: Q04DX003 (ip), vehicle: saline) was 94 % of control.
`CCCCN(CCCC)CCCC` was tested, and the T/C [12] was 93 % of control.
With `C(=N/NC1=NCCN1)/c1c2ccccc2c(/C=N\NC2=NCCN2)c2ccccc12` the T/C (endpoint: median survival time, dose: 0.37 mg/kg/injection, schedule: Q01DX009 (ip), vehicle: suspension in saline) was 152 % of control, the T/C (endpoint: median survival time, dose: 1.56 mg/kg/injection, schedule: Q01DX009 (ip), vehicle: saline) was 170 % of control and the T/C (endpoint: median survival time, dose: 3.0 mg/kg/injection, schedule: Q01DX009 (ip), vehicle: suspension in saline) was 172 % of control. The T/C (endpoint: median survival time, dose: 3.12 mg/kg/injection, schedule: Q01DX009 (ip), vehicle: saline) was 370 % of control, the T/C (endpoint: median survival time, dose: 6.25 mg/kg/injection, schedule: Q01DX009 (ip), vehicle: saline) was 172 % of control and the T/C (endpoint: median survival time, dose: 12.5 mg/kg/injection, schedule: Q01DX009 (ip), vehicle: saline) was 164 % of control and 180 % of control. For the same molecule, the T/C (endpoint: median survival time, dose: 25.0 mg/kg/injection, schedule: Q01DX009 (ip), vehicle: saline) was 176 % of control and the T/C (endpoint: median survival time, dose: 48.0 mg/kg/injection, schedule: Q01DX009 (ip), vehicle: suspension in saline) was 113 % of control.
`CSc1[nH]c2ncnc(Cl)c2c1C#N` was tested, and the T/C [10] was 100 % of control and the T/C [11] was 94 % of control.
`O=C(O)c1cc(=O)cc(C(=O)O)o1` was tested, and the T/C [4] was 91 % of control, the T/C [13] was 91 % of control and the T/C [1] was 90 % of control. The T/C [14] was 91 % of control and the T/C [2] was 95 % of control.
